Experiments:
[1] = test system: ovarian cancer cell line OVCAR3; assay: TGFβ1 induction of the 10 poor outcome signature genes (mRNA) in OVCAR3 cells; format: cell-based, human
Excerpt: (§1) FIG. 13(A) to FIG. 13(C). Regulation of the poor outcome signature genes by TGFβ signaling. (A) Ingenuity Pathway Analysis of the 61 genes present in at least two of the three discovery signatures of poor outcome. Genes that are present in all three discovery signatures are circled in red. (B) Top upstream regulators of the 61 poor outcome genes. (C) Induction of the 10 poor outcome signature genes by TGFβ1 in the ovarian stromal cell line TRS3 and the ovarian cancer cell line OVCAR3. Cells were treated with TGFβ1 (10 ng/ml) for 48 hours (TRS3) or 1-3 hours (OVCAR3) with or without pre-treatment with the TGFβ1 receptor inhibitor, A83-01. Shown is the relative fold change of the mRNA levels compared to untreated control cells. Data are presented as the mean+/−SEM in triplicate samples. * indicates P<0.05. Data are representative of at least three independent experiments.
FIG. 26. Induction of the 10 poor outcome signature genes by TGFβ1. OVCAR3 (OV3) cells were treated with 10 ng/ml TGFβ1 (B1) for either 1 hour or 3 hours with (OV3+B1+A) or without (OV3+B1) pre-treatment with the TGFβ inhibitor, A83-01.
(§2) To validate the predicted regulation of the poor outcome genes by TGFβ1, the Inventors treated the human ovarian stromal cell line TRS3 and the ovarian cancer cell line OVCAR3 with TGFβ1 and measured mRNA expression of the 10 poor outcome genes before and after TGFβ1 treatment.
(§3) Importantly, The Inventors included the ovarian stromal cell line since many of our poor outcome genes are thought to be expressed in stromal cells. […] To further validate that this induction was mediated by TGFβ1 signaling, the Inventors measured expression of the 10 genes in cells pre-treated with the TGFβ1 receptor inhibitor A83-01 before adding TGFβ1.
To learn more about the possible upstream regulators of the signature genes, the Inventors applied Ingenuity Pathway Analysis to the 61 signature genes in FIG. 12A and identified TGFβ1, TGFβ2, TGFβ3, SMAD3, and SMAD7 as top transcription factors regulating in expression of the signature genes.

[2] = test system: ovarian stromal cell line TRS3; assay: TGFβ1 induction of the 10 poor outcome signature genes (mRNA) in TRS3 cells; format: cell-based, human
Excerpt: as §1, with “Data are presented as the mean+/−SEM in triplicate samples. * indicates P<0.05. Data are representative of at least three independent experiments.” left out
as §2, §3

TGFβ = settings: mouse xenografts; cited from earlier work
LOX = settings: xenograft and transgenic mouse models; cited from earlier work
[3] = test system: ADAM12 mRNA in TRS3 cells; assay: Quantitative real-time PCR of ADAM12 mRNA in TRS3 cells with recombinant TGFβ1; format: cell-based, human; settings: recombinant TGFβ1 10 ng/ml, 48 hours
Excerpt: FIG. 37(A) to FIG. 37(C). ADAM12 expression in epithelial and stromal cells in patient tumors and different culture conditions. (A) Representative localization of ADAM12 protein (immunohistochemistry; brown staining) and mRNA (in situ hybridization; brown dots) in ovarian tumor sections from HGSOC patients. Size bar for both photographs=50 μm. (B) and (C) Quantitative real-time PCR of the ADAM12 mRNA in the TRS3 ovarian stromal cell line and OVCAR3 ovarian cancer cell line alone or in co-culture in the presence or absence of 10 ng/ml of recombinant TGFβ1. TRS3 stromal cells and GFP-labelled OVCAR3 cancer cells were co-cultured using an insert (insert) or in direct contact (direct) for 48 hours and sorted by FACS before RNA isolation. The top cell line on the x axis represents the cell line from which RNA was isolated. The y axis indicates 2^−ΔCt value. Data indicates mean+/−SEM.
The OVCAR3 ovarian cancer cell line was obtained from Dennis Slamon (University of California, Los Angeles) and its authenticity was confirmed by Laragen using the short tandem repeat (STR) method. […]
Total RNA was extracted using the RNeasy mini kit (Qiagen) and was reverse-transcribed to cDNA using the QuantiTect Reverse Transcription Kit (Qiagen). […] The qRT-PCR reaction was performed using an iCycler thermo cycler (Bio Rad) and the data were analyzed by the 2-ΔCT method. […]

osteosarcoma = settings: mouse model of osteosarcoma; cited from earlier work
[4] = pre-treatment before TGFβ1 10 ng/ml

## Cc1cccc(-c2nn(C(=S)Nc3ccccc3)cc2-c2ccnc3ccccc23)n1 [A83-01, reference compound]
[1]; [4]
  TGFβ1-induced expression of the 10 genes in cells pre-treated with inhibitor: abrogated
[2]; [4]
  TGFβ1-induced expression of the 10 genes in cells pre-treated with inhibitor: abrogated
TGFβ
  Tumor growth: reduce tumor growth

## N#CCCN [β-aminopropionitrile]
LOX
  Tumor metastasis: inhibited

## TGFβ1: recombinant TGFβ1 (Sigma), growth factor used at 10 ng/ml
[1]; TGFβ1 10 ng/ml, 1-3 hours, most of the 10 genes
  mRNA expression of the 10 poor outcome genes after TGFβ1 treatment: induced
[1]; after 1 hour of treatment with TGFβ1
  Expression of COL5A1 and SNAI2: markedly induced
[1]; after 3 hours of treatment with TGFβ1
  Expression of the remaining 8 genes: induced
[2]; TGFβ1 10 ng/ml, 48 hours, most of the 10 genes
  mRNA expression of the 10 poor outcome genes after TGFβ1 treatment: induced
[3]
  Increase of ADAM12 levels in TRS3 cells: approximately 10 fold

## collagenase
osteosarcoma
  Uptake and distribution of monoclonal antibodies: increased

— patent US10253368B2, “Molecular signatures of ovarian cancer” (Cedars-Sinai Medical Center, priority 2012, dated 2019)
